The test system of assay [1] is IL-6. Description: Assay 1: serum IL-6 in OVX rats (bioassay). In kind it is in vivo, SD rats. How it is done: (§1) Six month old, virgin SD rats are OVX or OVX/hypophysectomized (HYPOX) and treated with vehicle (20% cyclodextrin, PO), raloxifene (0.1 to 10 mg/kg/day, PO) or ethynyl estradiol EE2; 0.001 to 0.1 mg/kg/day, PO). A sham, vehicle treated control is also included. Serum and/or long bones are collected after a 35 day or shorter treatment period. Serum cytokine determinations are performed by bioassay.
(§2) No consistent changes in other serum cytokines is detected.

The next assay deals with OVX-induced osteopenia. Description: Assay 1: bone mass / BMD protection in OVX rats. The class given is in vivo, SD rats. The following applies: for BMD % (protection) / OVX-induced osteopenia: OVX rats, 35 day treatment; for OVX-induced osteopenia / bone density: result in words; for bone density: OVX/hypophysectomized (HYPOX) rats. Here is the method: as §1, §2
The subject of assay [2] is IL-6. Description: Assay 2: IL-1-induced serum IL-6 in mice (ELISA). The following applies: male BALB/c mice, 1 mg/kg PO for 3 days, then IL-1b 3 ug SC, 2 hours. The class given is in vivo. Here is the method:
Ten week old male BALB/c mice are treated with vehicle (20% cyclodextrin, PO) or raloxifene (1 mg/kg, PO) for 3 days. On day 4, mice are treated with vehicle (saline, IP), LA-15.1 anti-IL-1 receptor monoclonal antibody (mAb) (250 ug, IP) or human recombinant IL-1b (3 ug, SC). After 2 hours, serum was collected by orbital sinus puncture and IL-6 levels quantitated by ELISA.
Injection of IL-1 into cyclodextrin treated mice induces a significant increase in serum IL-6 (193 ± 29 ng/ml) versus saline injected cyclodextrin treated mice (<1 ng/ml) (Table 2). […] The anti-IL-1 receptor mAb LA-15.1 completely attenuates the IL-1-induced rise in serum IL-6 levels.
A general note: An ELISA detects its analyte on a solid surface through an enzyme-linked reagent.

Assay [3] has as its system IL-6 stimulated cell proliferation (T1165.17 plasmacytoma; B9 hybridoma). Description: Assay 3: cytokine dependent cell proliferation, IL-6. The class given is cell-based. The following applies: Mus musculus; 50% inhibition of IL-6 dependent cell proliferation; 0.01 to 1 µM tested. How it is done:
(§3) The following mouse cell lines were used for cytokine bioassays: CTLL.6 cytolytic T cell - IL-2, IL-4; 11.6 helper T cell - IL-4; T1165.17 plasmacytoma - IL-1, IL-6; B9 hybridoma - IL-6, LIF (leukemia inhibitory factor). Approximately 5,000 cells are seeded per duplicate well in 96-well flat-bottom microtiter plates in standard tissue culture medium (i.e. Iscove's Modified Dulbecco's Medium or Dulbecco's Modified Eagle's Medium supplemented with 25 mM Hepes, 2 mM L-glutamine, 50 µM 2-mercaptoethanol, 50 units/ml penicillin, 50 µg/ml streptomycin sulfate, and fetal bovine serum) containing vehicle (DMSO), raloxifene (0.01 to 1 µM) or 17-b-estradiol (0.01 to 1 µM) in the absence or presence of the indicated recombinant cytokine. Microtiter plates are incubated at 37°C in a humidified 10% CO2 incubator for 24 to 72 hours. At the end of that time, either 1 µCi 3H-thymidine or 100 µg of MTT (3-[4,5-dimethylthiazol-2-yl]-2,5-diphenyltetrazolium bromide) is added per well followed by an additional 4 to 6 hours of incubation. Microcultures pulsed using tritiated thymidine are harvested onto filter pads and counted by liquid scintillation. […] Optical density readings are taken at 570 nm with a reference wavelength of 690 nm to quantitate cell proliferation. […]

Assay [4] relates to LIF stimulated cell proliferation (B9 hybridoma). Description: Assay 3: cytokine dependent cell proliferation, LIF. In kind it is cell-based. The following applies: Mus musculus; 50% inhibition of LIF dependent cell proliferation; 0.01 to 1 µM tested. How it is done: as §3
The subject of assay [5] is IL-2 stimulated proliferation (CTLL.6 cytolytic T cell). Description: Assay 3: cytokine dependent cell proliferation, IL-2. In kind it is cell-based. The following applies: Mus musculus, 50% inhibition of IL-2 dependent cell proliferation, 0.01 to 1 µM tested. Here is the method: as §3
In assay [6] the test system is IL-4 stimulated proliferation (CTLL.6 cytolytic T cell; 11.6 helper T cell). Description: Assay 3: cytokine dependent cell proliferation, IL-4. In kind it is cell-based. The following applies: Mus musculus, 50% inhibition of IL-4 dependent cell proliferation, 0.01 to 1 µM tested. How it is done:
as §3

Where [7] appears, read: OVX rats, 35 day treatment, PO, result in words.
Setting [8] is: animals treated for as few as four days post-OVX, result in words.
Setting [9] is: OVX rats, 100 µg/kg, 35 day treatment.

The term IC50 denotes the concentration at which inhibition is half-maximal. Higher therefore signals a need for much substance.

Take `O=C(c1ccc(OCCN2CCCCC2)cc1)c1c(-c2ccc(O)cc2)sc2cc(O)ccc12` [Raloxifene]: the “Serum IL-6” value in the assay with IL-6 [1] (OVX rats, 0.1 mg.kg, PO, 35 day treatment) was 4.32 ± 1.65 ng/mL; with IL-6 [1] (OVX rats, 1 mg/kg, PO, 35 day treatment) it was 1.55 ± 0.48 ng/mL; with IL-6 [1] (OVX rats, 10 mg/kg, PO, 35 day treatment) it was 1.23 ± 0.45 ng/mL; in the assay on IL-6 [1] (setting [8]) it was “significant reduction”. Further, the “rise in serum IL-6 levels” value in the assay on IL-6 [1] (setting [7]) is recorded as “significantly attenuate”. Moreover, the “BMD % (protection)” value with OVX-induced osteopenia (0.1 mg.kg, PO) was 63.88 ± 19.8%; with OVX-induced osteopenia (1 mg/kg, PO) it was 82.50 ± 17.17%; in the assay with OVX-induced osteopenia (10 mg/kg, PO), 82.09 ± 7.02%. Also, the OVX-induced osteopenia entry in the assay with OVX-induced osteopenia (PO) is listed as “significantly attenuate”. In addition, the bone density entry with OVX-induced osteopenia is “did not respond”. The IL-6 was determined as 90 ± 21 ng/mL in the assay with IL-6 [2] (1 mg/kg) and 90 ± 2.1 ng/mL in the assay on IL-6 [2] (listed as 139478, 1 mg/kg). In addition, the half-inhibitory concentration (IC50) is 719 nM in assay [3], 603 nM in assay [4], more than 1000 nM in assay [5] and more than 1000 nM in assay [6].
Turning to `C#C[C@]1(O)CC[C@H]2[C@@H]3CCc4cc(O)ccc4[C@H]3CC[C@@]21C` [Ethy, ethynyl estradiol], the “Serum IL-6” value with IL-6 [1] (OVX rats, 1 µg/kg, 35 day treatment) is 3.42 ± 2.23 ng/mL; in the assay on IL-6 [1] (OVX rats, 10 µg/kg, 35 day treatment), 1.84 ± 0.60 ng/mL; in the assay with IL-6 [1] (setting [9]) it was 0.20 ± 0.10 ng/mL; with IL-6 [1] (setting [8]), “significant reduction”. In addition, the “rise in serum IL-6 levels” value with IL-6 [1] (setting [7]) was “significantly attenuate”. For the same compound, the “BMD % (protection)” value in the assay with OVX-induced osteopenia (1 µg/kg) worked out at 5.28 ± 11.83%; with OVX-induced osteopenia (10 µg/kg), 57.25 ± 16.07%; in the assay on OVX-induced osteopenia (100 µg/kg), 76.00 ± 18.3%. Moreover, in the assay with OVX-induced osteopenia (PO), the OVX-induced osteopenia result was “significantly attenuate”. Further, the bone density entry with OVX-induced osteopenia is reported as “did not respond”.
As for `C[C@]12CC[C@@H]3c4ccc(O)cc4CC[C@H]3[C@@H]1CC[C@@H]2O` [17-β-E2, 17-b-estradiol], the “Serum IL-6” value in the assay on IL-6 [1] (setting [9]) was determined as 0.07 ± 0.10 ng/mL. The “BMD % (protection)” value with OVX-induced osteopenia (100 µg/kg) was found to be 106.4 ± 11.8%. In addition, the IC50 in assay [3], in assay [4], in assay [5] and in assay [6] was more than 1000 nM each time.

(Values after patent EP0724879A2, “2-Phenyl-3-azoylbenzothiopenes for inhibiting effects of IL-6” (ELI LILLY AND COMPANY, priority 1995, dated 1996).)
